Earlier results as cited in patent US7807404B2, “Mutated truncated mt-pfkA gene for the synthesis of active shorter fragment of 6-phosphofructo-1-kinase” (Kemijski Institut, priority 2006, dated 2010).

Assays:
PFK1 [1] = conditions: citrate 10 mM
PFK1 [2] = molecular target: T1, PFK1 (Aspergillus niger, UniProt P78985); conditions: citrate 10 mM
T1 construct: The PFK1 isolated from Aspergillus niger cells; host or cells: Aspergillus niger cells

PFK1 [3] = molecular target: T2, PFK1 (Oryctolagus cuniculus, UniProt P00511)
T2 construct: the enzyme, isolated from the rabbit muscle; host or cells: rabbit muscle
T2 sequence (P00511 2-780 limits assumed): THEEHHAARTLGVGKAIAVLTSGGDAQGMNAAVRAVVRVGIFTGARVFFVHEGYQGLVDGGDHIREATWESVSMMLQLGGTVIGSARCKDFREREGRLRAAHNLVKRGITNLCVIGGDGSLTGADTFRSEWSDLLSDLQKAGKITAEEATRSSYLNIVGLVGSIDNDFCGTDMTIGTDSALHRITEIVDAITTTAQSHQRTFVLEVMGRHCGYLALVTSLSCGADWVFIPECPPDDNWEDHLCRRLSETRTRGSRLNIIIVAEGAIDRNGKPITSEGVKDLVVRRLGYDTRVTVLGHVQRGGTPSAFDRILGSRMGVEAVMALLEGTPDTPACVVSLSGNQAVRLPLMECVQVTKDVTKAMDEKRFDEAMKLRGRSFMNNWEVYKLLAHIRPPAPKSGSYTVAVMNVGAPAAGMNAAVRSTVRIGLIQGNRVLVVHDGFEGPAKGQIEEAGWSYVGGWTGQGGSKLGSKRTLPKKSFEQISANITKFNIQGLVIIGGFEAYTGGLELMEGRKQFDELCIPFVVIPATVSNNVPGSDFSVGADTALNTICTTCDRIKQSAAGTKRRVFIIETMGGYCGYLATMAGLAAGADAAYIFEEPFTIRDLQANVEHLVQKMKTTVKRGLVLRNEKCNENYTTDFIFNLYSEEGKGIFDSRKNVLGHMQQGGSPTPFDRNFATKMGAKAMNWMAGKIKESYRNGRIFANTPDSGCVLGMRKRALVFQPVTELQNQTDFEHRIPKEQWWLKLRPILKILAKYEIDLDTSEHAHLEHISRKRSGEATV

[4] = tested on: PFK1 with 8 amino acid residues cleaved from the C-terminal part

T1 sequence (P78985 whole entry): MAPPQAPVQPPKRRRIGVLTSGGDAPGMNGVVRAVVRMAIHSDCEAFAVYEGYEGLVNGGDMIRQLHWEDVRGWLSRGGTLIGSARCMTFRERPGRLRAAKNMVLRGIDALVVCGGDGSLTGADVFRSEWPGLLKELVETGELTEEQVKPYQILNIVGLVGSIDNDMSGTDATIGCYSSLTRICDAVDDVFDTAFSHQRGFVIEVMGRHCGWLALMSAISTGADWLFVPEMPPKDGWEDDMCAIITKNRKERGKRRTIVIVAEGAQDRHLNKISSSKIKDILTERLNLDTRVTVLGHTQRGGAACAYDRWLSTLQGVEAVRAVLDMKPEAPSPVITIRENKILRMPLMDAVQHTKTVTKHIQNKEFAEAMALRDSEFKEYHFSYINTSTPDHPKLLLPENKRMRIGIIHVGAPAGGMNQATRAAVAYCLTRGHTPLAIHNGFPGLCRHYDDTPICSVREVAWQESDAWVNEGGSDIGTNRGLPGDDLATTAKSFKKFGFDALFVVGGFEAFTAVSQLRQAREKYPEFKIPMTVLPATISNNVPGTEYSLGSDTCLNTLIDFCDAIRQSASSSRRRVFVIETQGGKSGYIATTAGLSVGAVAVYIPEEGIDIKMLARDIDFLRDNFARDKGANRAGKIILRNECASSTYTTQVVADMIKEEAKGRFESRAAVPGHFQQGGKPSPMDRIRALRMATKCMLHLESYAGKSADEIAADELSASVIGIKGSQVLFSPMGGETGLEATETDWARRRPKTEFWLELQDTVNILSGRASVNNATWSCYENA

For `O=C(O)CC(O)(CC(=O)O)C(=O)O` [citrate], the maximal velocity retained (PFK1 [1]) is listed as 20%, the “effect on catalytic activity” value (PFK1 [2]) is listed as “almost prevented its catalytic activity” and the “citrate concentration at which the enzyme was completely inactivated” value (PFK1 [3]) is listed as 2.5 mM. The “citrate concentration at which the enzyme lost its activity” value [4] was 10 mM.
